The values that follow come from US6555565B2, “Apoptosis inhibitor” (Takeda Chemical Industries, Ltd., priority 1997, dated 2003).

The experiment concerns mouse fibroblast (L929 cells, IFO 50409). Description: TNF-α-induced apoptosis (cell death) of L929 cells, crystal violet staining of living cells. It counts as cell-based. Conditions: test compound final concentration 1 μM, 72 hours cultivation, relative to dexamethasone (final concentration 1.1 μM) = 100. How it is done: Apoptosis (cell death) was induced by adding TNF-α to cells. The inhibitory activity of a test compound to this apoptosis was determined by using known dexamethasone having an apoptosis inhibitory activity as the standard.
Namely, 25 μl of a culture medium (PRMI-1640, produced by Nikken Seibutsu Igaku Kenkyusho, Japan) (containing 10 weight % of fetal bovine serum) was added to each well of a 96-well microplate. Then, added was 2 μl of a solution prepared by 20 volume fold dilution of dimethylformamide (in the case of Compound No. 16) or dimethylsulfoxide (in the case of Compound Nos. 2, 4, 6, 8, 13) solution of a test compound (concentration of the test compound: 1 mM) with the above culture medium.
Subsequently, 25 μl of a solution prepared by dissolving TNF-α (Genzyme, USA)(40 ng/ml culture medium) in the above culture medium, and 50 μl of a suspension (2×10^5 cells/ml) prepared by suspending mouse fibroblast (L929 cells, IFO 50409) in the above culture medium were added, and then cells were cultivated for 72 hours at 37° C. in the presence of 5% carbon dioxide in air. The final concentration of the test compound during cultivation was 1 μM.
After cultivation, the culture medium was removed from the wells by aspiration, and 50 μl of a 5% (w/v) crystal violet/70% (v/v) methanol solution was added to each well to pigment the living cells. Then the wells were washed and dried. The apoptosis inhibitory activity of the test compound was obtained by determining the optical density by using an absorptiometer [Microplate Reader Model 450, produced by Bio-Rad] at the wavelength of 570 nm.
While, the apoptosis inhibitory activity of dexamethasone was obtained in the same manner as above except that the above test compound (final concentration: 1 μM) was replaced by dexamethasone (final concentration: 1.1 μM).
Then, the apoptosis inhibitory activity of each test compounds (final concentration: 1 μM) was calculated when the apoptosis inhibitory activity of dexamethasone (final concentration: 1.1 μM) was 100.

Take `Cc1oc(-c2ccc3ccccc3c2)nc1CCOc1ccc(CCCC2OC(=O)NC2=O)cc1` (stereo not drawn) [Compound No. 2]: the “Apoptosis inhibitory activity (%)” value amounted to 70%.
Next, `COc1cc(CCCC2OC(=O)NC2=O)ccc1OCc1nc(-c2ccco2)oc1C` (stereo not drawn) [Compound No. 4, 5-[3-[4-[2-(2-furyl)-5-methyl-4-oxazoly]methoxy]-3-methoxyphenyllpropyl]-2,4-oxazolidinedione]: 74%; `Cc1oc(-c2ccccc2)nc1COc1ccc(CCCC2OC(=O)NC2=O)cc1` (stereo not drawn) [Compound No. 6, 5-[3-[4-(5-methyl-2-phenyl-4-oxazolylmethoxy]phenyl]propyl]-2,4-oxazolidinedione]: 70%.
Next, `Cn1nc(CCOc2ccc(CC3SC(=O)NC3=O)cc2)nc1-c1ccccc1` (stereo not drawn) [Compound No. 8, 5-[4-[2-(1-methyl-5-phenyl-1,2,4-triazol-3-yl)ethoxy]benzyl]-2,4-thiazolidinedione]: 70%; `CN(CCOc1ccc(CC2SC(=O)NC2=O)cc1)c1ccccn1` (stereo not drawn) [Compound No. 13, 5-[[4-[2-(methyl-2-pyridylamino)ethoxy]phenyl]methyl]-2,4-thiazolidinedione, reference compound]: 92%; `COc1cc(CCCC2OC(=O)NC2=O)ccc1OC(C)c1nc(-c2ccccc2)oc1C` (stereo not drawn) [Compound No. 16, 5-[3-[3-methoxy-4-[1-(5-methyl-2-phenyl-4-oxazolyl)ethoxy]phenyl]propyl]-2,4-oxazolidinedione]: 71%.
